In BindingDB's records for doi:10.1021/jm00060a014 (Upjohn Laboratories, 1993):

experiment: Binding affinity against [3H]8-OH-DPAT-labeled 5-hydroxytryptamine 1A receptor sites in bovine hippocampus

| Structure (SMILES) | Ki |
| --- | --- |
| CCCN1CCC2c3c(cccc3OC)CCC21 (stereo not drawn) [9-Methoxy-3-propyl-2,3,3a,4,5,9b-hexahydro-1H-benzo[e]indole] | 4.4 nM |
| CCCN1CCC2c3c(cccc3OC)CC[C@@H]21 (stereo partly drawn) [9-Methoxy-3-propyl-2,3,3a,4,5,9b-hexahydro-1H-benzo[e]indole] | 186 nM |
| COc1cccc2c1CC[C@@H]1[C@H]2CCN1CC1CC1 [(3aR,9bS)-3-Cyclopropylmethyl-6-methoxy-2,3,3a,4,5,9b-hexahydro-1H-benzo[e]indole] | > 1000 nM |
